Paper PMC8248988, “A signal capture and proofreading mechanism for the KDEL-receptor explains selectivity and dynamic range in ER retrieval” (eLife, 2021)
Values belong to the molecule of their own block, whether it stands above or below them. Ends that are not written are not given here.

Legend:
chicken KDELR2 = target: T1, chicken KDELR2 (Gallus gallus, UniProt Q5ZKX9); test: Competition binding assay, [3H]-TAEHDEL against unlabelled peptide; conditions: for IC50: competition with [3H]-TAEHDEL, free (COOH) or amidated (CONH) C-terminus, pH 5.4, read-out: Competitor peptide IC50
T1 construct: GFP (of the pDDGFP vector); made in house; host or cells: Saccharomyces cerevisiae Bj5460
T1 sequence (Q5ZKX9 1-212): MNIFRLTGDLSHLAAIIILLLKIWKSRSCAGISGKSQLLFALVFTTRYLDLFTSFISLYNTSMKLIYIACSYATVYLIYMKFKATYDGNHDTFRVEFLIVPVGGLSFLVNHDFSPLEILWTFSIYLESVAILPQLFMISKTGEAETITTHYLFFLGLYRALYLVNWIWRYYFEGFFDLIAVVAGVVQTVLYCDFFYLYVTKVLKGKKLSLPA
Source text: (§1) Figure 1. ER retrieval signal abundance and affinity are not correlated. (a) Sequence logos for ER resident proteins with C-terminal KDEL retrieval signals and variants thereof calculated using frequency or protein abundance ([Itzhak et al., 2017]; [Itzhak et al., 2016]). (b) Combined cellular concentrations of ER resident proteins with canonical KDEL, RDEL, and HDEL retrieval sequences in HeLa cells and mouse brain. (c) Competition binding assays for [^3H]-TAEHDEL and unlabelled TAEKDEL, TAERDEL, and TAEHDEL to the KDEL receptor. IC50 values for the competing peptides were used to calculate the apparent KDwith the Cheng-Prusoff equation ([Cheng and Prusoff, 1973]). (d) Endogenous KDEL receptor redistribution was measured in COS-7 cells in the absence (-ligand) or presence of K/R/H/A/DDEL (mScarlet-xDEL^sec). TGN46 was used as a Golgi marker. Scale bar is 10 µm. (e) The mean difference for K/R/H/A/DDEL comparisons against the shared no ligand control are shown as Cummings estimation plots. The individual data points for the fraction of KDEL receptor fluorescence in the Golgi are plotted on the upper axes with sample sizes and p values. Figure 1—source data 1. Source data for the ligand-induced KDELR receptor retrieval assays in Figure 1e. Figure 1—figure supplement 1. Abundance of ER resident proteins and chaperones in human cells and mouse brain. (a) The mean concentration of ER resident chaperones with the indicated ER retrieval sequence variant is plotted in the bar graph ([Itzhak et al., 2017]; [Itzhak et al., 2016]). […] Endogenous ER chaperone secretion was measured by western blotting after challenge with different retrieval signals, and plotted as a bar graph showing mean ± SEM (n = 3). […] (a) Distribution of human KDELR1 and (b) KDELR2 was measured in COS-7 cells in the absence (-ligand) or presence of K/R/H/A/DDEL retrieval signals (K/R/H/A/DDEL^sec). […] The fraction of KDEL receptor localised to the Golgi was measured before (no ligand) and after challenge with different retrieval signals as indicated. […]

[1] = system: endogenous KDEL receptor in COS-7 cells; test: ER retrieval assay, endogenous KDEL receptor redistribution; format: cell-based, African green monkey; conditions: COS-7 cells
Source text: as §1, with “1.” for “1. Abundance of ER resident proteins and chaperones in human cells and mouse brain. (a) The mean concentration of ER resident chaperones with the indicated ER retrieval sequence variant is plotted in the bar graph ([Itzhak et al., 2017]; [Itzhak et al., 2016]).”
To create KDELR1-GFP and KDELR2-GFP, the reading frames for Homo sapiens KDELR1 (Uniprot: P24390) and KDELR2 (Uniprot: P33947) were cloned into the pEF5/FRT low level mammalian expression vector with a C-terminal 20 amino acid linker made up of 5 copies of Gly-Ser-Ser-Ser followed by GFP. […]

human KDELR1 = target: T2, human KDELR1 (Homo sapiens, UniProt P24390); test: ER retrieval assay, WT KDELR1-GFP; format: cell-based; conditions: COS-7 cells, WT human KDEL receptor-GFP with mScarlet ligand
T2 construct: expressed in transfected cells; host or cells: COS-7
Source text: To create KDELR1-GFP and KDELR2-GFP, the reading frames for Homo sapiens KDELR1 (Uniprot: P24390) and KDELR2 (Uniprot: P33947) were cloned into the pEF5/FRT low level mammalian expression vector with a C-terminal 20 amino acid linker made up of 5 copies of Gly-Ser-Ser-Ser followed by GFP. Specific point mutations were introduced using the Quickchange protocol (Stratagene) and are described in the key resources table and figures. To create the mScarlet-KDEL^sec ligand construct, mScarlet with an N-terminal hGH signal peptide and the 16 C-terminal residues of human BiP at its C-terminus, containing the KDEL signal, was cloned into the pcDNA3.1 vector. […] The Golgi marker protein TGN46 was detected by antibody (sheep anti-TGN46 AHP500G; AbD Serotec) and an Alexa 647 conjugated secondary anti-sheep secondary (A-21448, Invitrogen). In Figure 1d and e, endogenous KDELR was detected by antibody (mouse anti-KDELR ADI-VAA-PT048; Enzo Life Sciences) and Alexa 488 conjugated anti-mouse secondary antibody (A-21202, Invitrogen). For retrieval assays in other figures, KDELR-GFP fusion proteins were directly detected by fluorescence. The mScarlet-xDEL fusion proteins were directly detected by fluorescence. […] The fraction of KDEL receptor in the Golgi apparatus was calculated by dividing the Golgi signal by the total cell signal. […]

[2] = target: T3, TAEHDEL retrieval signal peptide; test: [3H]-peptide filter binding assay, pH 5.4
T3 chain: TAEHDEL

[3] = target: T4, TAEKDEL retrieval signal peptide (BiP) (Homo sapiens); test: [3H]-peptide filter binding assay, pH 5.4
T4 chain: TAEKDEL

T2 sequence (P24390 whole entry): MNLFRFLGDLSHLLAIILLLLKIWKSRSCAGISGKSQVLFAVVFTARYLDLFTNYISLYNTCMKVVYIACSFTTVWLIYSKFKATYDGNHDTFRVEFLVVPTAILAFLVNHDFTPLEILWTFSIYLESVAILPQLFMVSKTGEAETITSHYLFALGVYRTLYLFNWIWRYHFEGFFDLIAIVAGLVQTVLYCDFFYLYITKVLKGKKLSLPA

Molecule: TAEKDEL
- localisation of the mScarlet ligand (in words) [1]: retrieved to the ER

B2: KDEL receptor 2 (protein)
chain: MNIFRLTGDLSHLAAIIILLLKIWKSRSCAGISGKSQLLFALVFTTRYLDLFTSFISLYNTSMKLIYIACSYATVYLIYMKFKATYDGNHDTFRVEFLIVPVGGLSFLVNHDFSPLEILFTFSIYLESVAILPQLFMISKTGEAETITTHYLFFLGLYRALYLVNWIWRYYFEGFFDLIAVVAGVVQTVLYCDFFYLYVTKVLKGKKLSLPA
- Kd [2]: 5.5 µM

B3: KDEL receptor 2 (protein)
chain: MNIFRLTGDLSHLAAIIILLLKIWKSRSCAGISGKSQLLFALVFTTRYLDLFTSFISLYNTSMKLIYIACSYATVYLIYMKFKATYDGNHDTFRVEFLIVPVGGLSFLVNHDFSPLDILWTFSIYLESVAILPQLFMISKTGEAETITTHYLFFLGLYRALYLVNWIWRYYFEGFFDLIAVVAGVVQTVLYCDFFYLYVTKVLKGKKLSLPA
- Kd [2]: 0.52 µM
- Kd [3]: 2.1 µM

The next lines start with the values.

- IC50 (chicken KDELR2): 1750 ± 170 µM
Molecule: TAEHDEL-NH2 [HDEL^CONH, TAEHDEL-CONH]

- binding of C-terminally amidated peptide to wild-type receptor (in words) (chicken KDELR2; amidated C-terminus): completely abolished binding
Molecule: TAEKDEL-CONH [KDEL^CONH, C-amidated peptide variant]

- IC50 (chicken KDELR2): 152 ± 21.7 µM
Molecule: TAEKDEL-OH [KDEL, TAEKDEL]

- ligand-induced receptor retrieval to the ER (in words) (human KDELR1): functional
Molecule: pcDNA3.1 hGHss-mScarlet-S. cerevisiae BiP667-682 [FEHDEL]

- Kd [2]: 0.52 µM
- Kd [3]: ~9.3 µM
B1: KDEL receptor 2 (protein)
chain: MNIFRLTGDLSHLAAIIILLLKIWKSRSCAGISGKSQLLFALVFTTRYLDLFTSFISLYNTSMKLIYIACSYATVYLIYMKFKATYDGNHDTFRVEFLIVPVGGLSFLVNHDFSPLAILWTFSIYLESVAILPQLFMISKTGEAETITTHYLFFLGLYRALYLVNWIWRYYFEGFFDLIAVVAGVVQTVLYCDFFYLYVTKVLKGKKLSLPA
